Measurements: patent US10165776B2, “Substituted pyrazolylpyrazole derivative and use of same as herbicide” (KYOYU AGRI CO., LTD., priority 2015, dated 2019)

Tests used:
Format in all cases: in vivo
Digitaria ciliaris [1] = experiment: Weed foliar treatment test (Test 4, 4.0 to 5.0 leaf stage); settings: 10 g a.i./10 a; foliar spray at 4.0 to 5.0 leaf stage of Digitaria ciliaris (plant height 10 cm to 15 cm); 20 days at 25° C.
Protocol: (§1) Field soil was filled into a 1/4500 are pot followed by seeding with Digitaria ciliaris and Galinsoga parviflora, covering with soil and cultivating in a glass greenhouse at an average atmospheric temperature of 25° C. Wettable powders of Target Compound (I) shown in Table 1 prepared in compliance with the preparation examples were diluted with water to the prescribed amount of chemical and uniformly sprayed onto the weeds using 100 liters of sprayed water per 10 are when Digitaria ciliaris had grown to the 4.0 to 5.0 leaf stage (plant height: 10 cm to 15 cm). After treating for 20 days in a glass greenhouse at an average atmospheric temperature of 25° C., the herbicidal efficacy thereof was investigated. Evaluation of herbicidal efficacy was carried out in the same manner as the above-mentioned Test Example 1.

Galinsoga parviflora = experiment: as above; settings: 10 g a.i./10 a; foliar spray at 4.0 to 5.0 leaf stage of Digitaria ciliaris (plant height 10 cm to 15 cm); 20 days at 25° C.
Protocol: as §1

Echinochloa crus-galli = experiment: Paddy herbicidal activity test; settings: irrigated pot, treated at 3.5 leaf stage of Echinochloa crus-galli, 30 days at 30° C.
Protocol: (§2) Rice paddy soil was filled into a 1/10000 are pot followed by the addition of suitable amounts of water and chemical fertilizer, kneading, seeding with Echinochloa crus-galli, Monochoria vaginalis and Scirpus juncoides and maintaining in an irrigated state at a water depth of 3 cm. Wettable powders of Target Compound (I) shown in Table 1 prepared in compliance with the preparation examples were diluted with a suitable amount of water, rice plants in the 2.0 leaf stage were transplanted during 3.5 leaf stage of Echinochloa crus-galli, and treated by dropping in chemical in the prescribed amount per 10 are using a pipette. After treating for 30 days in a glass greenhouse at an average atmospheric temperature of 30° C., the herbicidal efficacy thereof was investigated. Evaluation of herbicidal efficacy was carried out by comparing growth inhibition rate (%) with an untreated group, while evaluation of phytotoxicity was carried out by comparing growth inhibition rate (%) with the state of a complete eradication group, and were evaluated at 11 levels indicated below.

Monochoria vaginalis = experiment: Paddy herbicidal activity test; settings: irrigated pot, treated at 3.5 leaf stage of Echinochloa crus-galli, 30 days at 30° C.
Protocol: as §2

Scirpus juncoides = experiment: Paddy herbicidal activity test; settings: irrigated pot, treated at 3.5 leaf stage of Echinochloa crus-galli, 30 days at 30° C.
Protocol: as §2

Oryza sativa = experiment: Paddy herbicidal activity test, phytotoxicity to transplanted rice; settings: rice transplanted at 2.0 leaf stage, 30 days at 30° C.
Protocol: as §2

Amaranthus retroflexus [2] = experiment: Farming soil treatment test; settings: soil surface spray prior to weed growth, 30 days at 30° C.
Protocol: (§3) Field soil was filled into a 1/6000 are pot followed by seeding with Digitaria ciliaris, Chenopodium album and Amaranthus retroflexus and covering with soil. Wettable powders of compounds of formula (I) shown in Table 1 prepared in compliance with the preparation examples were diluted with water to the prescribed amount of chemical and uniformly sprayed onto each soil surface layer using 100 liters of sprayed water per 10 are prior to weed growth following seeding. After treating for 30 days in a glass greenhouse at an average atmospheric temperature of 30° C., the herbicidal efficacy thereof was investigated. Evaluation of herbicidal efficacy was carried out in the same manner as the above-mentioned Test Example 1.

Chenopodium album [3] = experiment: Farming soil treatment test; settings: soil surface spray prior to weed growth, 30 days at 30° C.
Protocol: as §3

Digitaria ciliaris [4] = experiment: Farming soil treatment test; settings: soil surface spray prior to weed growth, 30 days at 30° C.
Protocol: as §3

Amaranthus retroflexus [5] = experiment: Weed foliar treatment test (Test 3, 1.0 to 2.0 leaf stage); settings: foliar spray at 1.0 to 2.0 leaf stage of Digitaria ciliaris, 3 weeks at 25° C.
Protocol: (§4) Soil was filled into a 1/6000 are pot followed by seeding with Digitaria ciliaris, Chenopodium album and Amaranthus retroflexus, covering with soil, and cultivating in a glass greenhouse at an average atmospheric temperature of 25° C. Wettable powders of Target Compound (I) shown in Table 1 prepared in compliance with the preparation examples were diluted with water to the prescribed amount of chemical and uniformly sprayed onto the weeds using 150 liters of sprayed water per 10 are when Digitaria ciliaris had grown to the 1.0 to 2.0 leaf stage. After treating for 3 weeks in a glass greenhouse at an average atmospheric temperature of 25° C., the herbicidal efficacy thereof was investigated. Evaluation of herbicidal efficacy was carried out in the same manner as the above-mentioned Test Example 1.

Chenopodium album [6] = experiment: as above; settings: foliar spray at 1.0 to 2.0 leaf stage of Digitaria ciliaris, 3 weeks at 25° C.
Protocol: as §4

Digitaria ciliaris [7] = experiment: as above; settings: foliar spray at 1.0 to 2.0 leaf stage of Digitaria ciliaris, 3 weeks at 25° C.
Protocol: as §4

N#Cc1cnn(-c2nn3c(c2Cl)CCC3)c1NC(=O)Cc1ccccc1 [Compound 2]
herbicidal efficacy, Digitaria ciliaris (Digitaria ciliaris [1]): 10 (10: 100%)
herbicidal efficacy, Galinsoga parviflora (Galinsoga parviflora): 10 (10: 100%)

N#Cc1cnn(-c2nn3c(c2Cl)CCCC3)c1NC(=O)Cc1ccccc1 [Compound 3]
herbicidal efficacy, Echinochloa crus-galli (Echinochloa crus-galli; 1 g a.i./10 a): 9 (9: 90% to less than 100%)
herbicidal efficacy, Echinochloa crus-galli (Echinochloa crus-galli; 5 g a.i./10 a): 10 (10: 100%)
herbicidal efficacy, Monochoria vaginalis (Monochoria vaginalis; 1 g a.i./10 a): 9 (9: 90% to less than 100%)
herbicidal efficacy, Monochoria vaginalis (Monochoria vaginalis; 5 g a.i./10 a): 10 (10: 100%)
herbicidal efficacy, Scirpus juncoides (Scirpus juncoides; 1 g a.i./10 a): 9 (9: 90% to less than 100%)
herbicidal efficacy, Scirpus juncoides (Scirpus juncoides; 5 g a.i./10 a): 10 (10: 100%)
phytotoxicity, Oryza sativa (Oryza sativa; 1 g a.i./10 a): 0 (0 (exponent): 0% to less than 10% (growth inhibition rate))
phytotoxicity, Oryza sativa (Oryza sativa; 5 g a.i./10 a): 1 (1: 10% to less than 20%)
herbicidal efficacy, Amaranthus retroflexus (Amaranthus retroflexus [2]; 5 g a.i./10 a): 9 (9: 90% to less than 100%)
herbicidal efficacy, Amaranthus retroflexus (Amaranthus retroflexus [2]; 10 g a.i./10 a): 9 (9: 90% to less than 100%)
herbicidal efficacy, Chenopodium album (Chenopodium album [3]; 5 g a.i./10 a): 9 (9: 90% to less than 100%)
herbicidal efficacy, Chenopodium album (Chenopodium album [3]; 10 g a.i./10 a): 10 (10: 100%)
herbicidal efficacy, Digitaria ciliaris (Digitaria ciliaris [4]; 5 g a.i./10 a): 9 (9: 90% to less than 100%)
herbicidal efficacy, Digitaria ciliaris (Digitaria ciliaris [4]; 10 g a.i./10 a): 9 (9: 90% to less than 100%)
herbicidal efficacy, Amaranthus retroflexus (Amaranthus retroflexus [5]; 5 g a.i./10 a): 9 (9: 90% to less than 100%)
herbicidal efficacy, Amaranthus retroflexus (Amaranthus retroflexus [5]; 10 g a.i./10 a): 10 (10: 100%)
herbicidal efficacy, Chenopodium album (Chenopodium album [6]; 5 g a.i./10 a): 10 (10: 100%)
herbicidal efficacy, Chenopodium album (Chenopodium album [6]; 10 g a.i./10 a): 10 (10: 100%)
herbicidal efficacy, Digitaria ciliaris (Digitaria ciliaris [7]; 5 g a.i./10 a): 10 (10: 100%)
herbicidal efficacy, Digitaria ciliaris (Digitaria ciliaris [7]; 10 g a.i./10 a): 10 (10: 100%)
herbicidal efficacy, Digitaria ciliaris (Digitaria ciliaris [1]): 10 (10: 100%)
herbicidal efficacy, Galinsoga parviflora (Galinsoga parviflora): 10 (10: 100%)

N#Cc1cnn(-c2nn3c(c2Br)CCCC3)c1NC(=O)Cc1ccccc1 [Compound 4]
herbicidal efficacy, Digitaria ciliaris (Digitaria ciliaris [1]): 10 (10: 100%)
herbicidal efficacy, Galinsoga parviflora (Galinsoga parviflora): 10 (10: 100%)

O=C(Cc1ccccc1)Nc1c([N+](=O)[O-])cnn1-c1nn2c(c1Cl)CCCC2 [Compound 5]
herbicidal efficacy, Echinochloa crus-galli (Echinochloa crus-galli; 1 g a.i./10 a): 10 (10: 100%)
herbicidal efficacy, Echinochloa crus-galli (Echinochloa crus-galli; 5 g a.i./10 a): 10 (10: 100%)
herbicidal efficacy, Monochoria vaginalis (Monochoria vaginalis; 1 g a.i./10 a): 10 (10: 100%)
herbicidal efficacy, Monochoria vaginalis (Monochoria vaginalis; 5 g a.i./10 a): 10 (10: 100%)
herbicidal efficacy, Scirpus juncoides (Scirpus juncoides; 1 g a.i./10 a): 9 (9: 90% to less than 100%)
herbicidal efficacy, Scirpus juncoides (Scirpus juncoides; 5 g a.i./10 a): 10 (10: 100%)
phytotoxicity, Oryza sativa (Oryza sativa; 1 g a.i./10 a): 1 (1: 10% to less than 20%)
phytotoxicity, Oryza sativa (Oryza sativa; 5 g a.i./10 a): 1 (1: 10% to less than 20%)
herbicidal efficacy, Amaranthus retroflexus (Amaranthus retroflexus [2]; 5 g a.i./10 a): 9 (9: 90% to less than 100%)
herbicidal efficacy, Amaranthus retroflexus (Amaranthus retroflexus [2]; 10 g a.i./10 a): 9 (9: 90% to less than 100%)
herbicidal efficacy, Chenopodium album (Chenopodium album [3]; 5 g a.i./10 a): 9 (9: 90% to less than 100%)
herbicidal efficacy, Chenopodium album (Chenopodium album [3]; 10 g a.i./10 a): 10 (10: 100%)
herbicidal efficacy, Digitaria ciliaris (Digitaria ciliaris [4]; 5 g a.i./10 a): 9 (9: 90% to less than 100%)
herbicidal efficacy, Digitaria ciliaris (Digitaria ciliaris [4]; 10 g a.i./10 a): 9 (9: 90% to less than 100%)
herbicidal efficacy, Amaranthus retroflexus (Amaranthus retroflexus [5]; 5 g a.i./10 a): 10 (10: 100%)
herbicidal efficacy, Amaranthus retroflexus (Amaranthus retroflexus [5]; 10 g a.i./10 a): 10 (10: 100%)
herbicidal efficacy, Chenopodium album (Chenopodium album [6]; 5 g a.i./10 a): 10 (10: 100%)
herbicidal efficacy, Chenopodium album (Chenopodium album [6]; 10 g a.i./10 a): 10 (10: 100%)
herbicidal efficacy, Digitaria ciliaris (Digitaria ciliaris [7]; 5 g a.i./10 a): 10 (10: 100%)
herbicidal efficacy, Digitaria ciliaris (Digitaria ciliaris [7]; 10 g a.i./10 a): 10 (10: 100%)
herbicidal efficacy, Digitaria ciliaris (Digitaria ciliaris [1]): 10 (10: 100%)
herbicidal efficacy, Galinsoga parviflora (Galinsoga parviflora): 10 (10: 100%)

COc1ccccc1CC(=O)Nc1c(C#N)cnn1-c1nn2c(c1Cl)CCCC2 [Compound 7]
herbicidal efficacy, Digitaria ciliaris (Digitaria ciliaris [1]): 10 (10: 100%)
herbicidal efficacy, Galinsoga parviflora (Galinsoga parviflora): 10 (10: 100%)

N#Cc1cnn(-c2nn3c(c2Cl)CCCC3)c1NC(=O)Cc1ccccc1Cl [Compound 8]
herbicidal efficacy, Digitaria ciliaris (Digitaria ciliaris [1]): 10 (10: 100%)
herbicidal efficacy, Galinsoga parviflora (Galinsoga parviflora): 10 (10: 100%)

COc1cccc(CC(=O)Nc2c(C#N)cnn2-c2nn3c(c2Cl)CCCC3)c1 [Compound 10]
herbicidal efficacy, Digitaria ciliaris (Digitaria ciliaris [1]): 10 (10: 100%)
herbicidal efficacy, Galinsoga parviflora (Galinsoga parviflora): 10 (10: 100%)

N#Cc1cnn(-c2nn3c(c2Cl)CCCC3)c1NC(=O)Cc1cccc(Cl)c1 [Compound 12]
herbicidal efficacy, Digitaria ciliaris (Digitaria ciliaris [1]): 10 (10: 100%)
herbicidal efficacy, Galinsoga parviflora (Galinsoga parviflora): 10 (10: 100%)

Cc1ccc(CC(=O)Nc2c(C#N)cnn2-c2nn3c(c2Cl)CCCC3)cc1 [Compound 13]
herbicidal efficacy, Digitaria ciliaris (Digitaria ciliaris [1]): 10 (10: 100%)
herbicidal efficacy, Galinsoga parviflora (Galinsoga parviflora): 10 (10: 100%)

COc1ccc(CC(=O)Nc2c(C#N)cnn2-c2nn3c(c2Cl)CCCC3)cc1 [Compound 14]
herbicidal efficacy, Digitaria ciliaris (Digitaria ciliaris [1]): 10 (10: 100%)
herbicidal efficacy, Galinsoga parviflora (Galinsoga parviflora): 10 (10: 100%)

N#Cc1cnn(-c2nn3c(c2Cl)CCCC3)c1NC(=O)Cc1ccc(Cl)cc1 [Compound 16]
herbicidal efficacy, Digitaria ciliaris (Digitaria ciliaris [1]): 10 (10: 100%)
herbicidal efficacy, Galinsoga parviflora (Galinsoga parviflora): 10 (10: 100%)

N#Cc1cnn(-c2nn3c(c2Cl)CCCC3)c1NC(=O)Cc1ccc(C(F)(F)F)cc1 [Compound 17]
herbicidal efficacy, Digitaria ciliaris (Digitaria ciliaris [1]): 10 (10: 100%)
herbicidal efficacy, Galinsoga parviflora (Galinsoga parviflora): 10 (10: 100%)

N#Cc1cnn(-c2nn3c(c2Cl)CCCC3)c1NC(=O)Cc1ccc(Cl)cc1Cl [Compound 18]
herbicidal efficacy, Digitaria ciliaris (Digitaria ciliaris [1]): 10 (10: 100%)
herbicidal efficacy, Galinsoga parviflora (Galinsoga parviflora): 10 (10: 100%)
